As a reminder, the pIC50 is the negative decadic logarithm of the IC50, by convention in mol/L.

The results in this text go back to patent US20220324862A1, “PYRIDOPYRIMIDINONE COMPOUNDS” (Acerand Therapeutics (USA) Limited, priority 2021, published 2022).

pIC50: −log10 of the molar value.

For assay [1], the system named is cellular pERK in NCI-H1975 cells (EGFR/L858R-T790M). The experiment in a line: pERK Potency Assay. In kind it is cell-based. The conditions noted are these: Homo sapiens, 1 hour incubation, Western blot, read-out: IC50 value, cellular pERK level. The text has this: The purpose of this assay is to measure the ability of test compounds to inhibit SOS1 function in cells. SOS1 activates RAS proteins by catalyzing the conversion of RAS-GDP to RAS-GTP in response to receptor tyrosine kinase activation. Activation of RAS induces a sequence of cellular signaling events that results in increased phosphorylation of ERK at Threonine 202 and Tyrosine 204 (pERK). The procedure described below measured the level of cellular pERK in response to test compounds in NCI-H1975 cells (EGFR/L858R-T790M).
NCI-H1975 cells were grown and maintained using media and procedures recommended by the ATCC. On the day prior to compound addition, cells were plated in 24-well cell culture plates (0.9 ml/well) and grown overnight in a 37° C., 5% CO2 incubator. Test compounds were prepared with 3-fold serial dilutions in DMSO, with a top concentration of 10 mM. On the day of the assay, 100 uL of each test compound diluted at 1:100 in media was added to each well of cell culture plate with final concentrations of the compound spanning 0.5 nM to 10 uM. After the compound was added, the cells were incubated for 1 hour at 37° C., 5% CO2. Following incubation, culture medium was removed, and the cells were washed once with phosphate buffered saline and lysed with lysis buffer (20 mM Tris-HCl, pH 7.5, 150 mM NaCl, 1 mM EDTA, 1 mM EGTA, 0.8% NP-40 plus 2× protease and phosphatase inhibitors). Cellular pERK level was determined using the Western blot analysis and quantified with Liqor software. Signal from Western blot was plotted and IC50 values were determined by fitting a 4-parameter sigmoidal concentration response model.
On the technique in general: Immunoblotting shows a protein as a band on a membrane.

Assay [2] deals with NCI-H1975 cells. Description: 3D cell proliferation assay. In kind it is cell-based. Conditions: Homo sapiens, ultra low attachment plate, 96 hours, 3D CTG. As to the method: This assay supports the molecular mode of action of compounds. Low IC50 values are indicative of high potency of the SOS1 inhibition. […] This supports the molecular mode of action of the SOS1 inhibitors as selectively targeting cancer cells dependent on receptor tyrosine kinase-RAS/SOS1-family protein function. Cell proliferation assays were performed in three-dimensional (3D) anchorage-independent conditions in 96 well ultra-low attachment plate with the following human cell lines:
NCI-H1975: human non-small cell lung cancer (NSCLC) with wild type KRAS and EGFR L858R/T790M mutation;
Cell lines were purchased from the American Type Culture Collection (ATCC), NCI, or European Collection of Authenticated Cell Cultures (ECACC). All cell lines were maintained in RPMI-1640 or DMEM with 10% heat inactivated fetal bovine serum.
Cells growing in log phase were detached with Gibco™ TrypLE™ Express Enzyme and plated in 96 well ultra low attachment plate at 15000 to 20000 cells/well in 100 μl of media. After overnight incubation at 37° C. and 5% CO2, the cells were treated with compounds (50 μL/well) at the final concentrations spanning 1 nM to 20 μM. Cells were incubated at 37° C., 5% CO2 and 95% humidity incubator for 96 hours. At the end of incubation, a 3D CTG reagent from Promega was added to each well according to vendors recommendation and mixed for 10 minutes in dark. The luminescence signals were determined using Biotek plate reader. The data was fitted using a sigmoidal curve analysis program (GraphPAD Prism) with variable hill slope.

On to `C#C[C@@H](Nc1nc(C)nc2cc(=O)n(C3(C)CCN(C(C)=O)CC3)cc12)c1cccc(C(F)(F)F)c1C` [Compound 33, (R)-6-(1-acetyl-4-methylpiperidin-4-yl)-2-methyl-4-((1-(2-methyl-3-(trifluoromethyl)phenyl)prop-2-yn-1-yl)amino)pyrido[4,3-d]pyrimidin-7(6H)-one], for which the pIC50 in assay [1] and in assay [2] was > 7.00 in each case.
